Results published in ChEMBL document CHEMBL5247581, “Design, synthesis and biological evaluation of new quinazolinone-benzopyran-indole hybrid compounds promoting osteogenesis through BMP2 upregulation” (Eur J Med Chem, 2022).
Activity calls are given as the source filed them. The calls are words filed in the database; no cut-off is given here.

Experiments:
Calvarial osteoblast [1] = assay: Induction of osteogenesis in mouse Osteoblast cells assessed as ALP activity at 0.001 to 100 uM measured for 24 to 48 hrs; assay type: functional; conditions: dose 0.001-100 µM, time 24-48 hrs
Calvarial osteoblast [2] = assay: Induction of osteogenesis in mouse Osteoblast cells assessed as ALP activity at 100 pM measured for 48 hrs; assay type: functional, cell-based
Calvarial osteoblast [3] = assay: Induction of osteogenesis in mouse Osteoblast cells assessed as ALP activity at 0.001 to 100 uM measured for 48 hrs; assay type: functional, cell-based; conditions: dose 0.001-100 µM
Calvarial osteoblast [4] = assay: Induction of osteoblast differentiation in mouse calvarial osteoblasts cells assessed as ALP activity at 1 to 10000 pM measured for 7 days; assay type: functional, cell-based; conditions: dose 1-10000 pM, time 7.0 day
Calvarial osteoblast [5] = assay: Induction of osteogenesis in mouse Osteoblast cells assessed as ALP activity at 0.001 to 100 uM measured for 24 hrs; assay type: functional, cell-based; conditions: dose 0.001-100 µM
Calvarial osteoblast [6] = assay: Cytotoxicity against mouse Osteoblast cells assessed as reduction in cell viability at 100 uM measured for 24 to 48 hrs by MTT assay; assay type: toxicity, cell-based; conditions: time 24-48 hrs
Calvarial osteoblast [7] = assay: Cytotoxicity against mouse Osteoblast cells assessed as reduction in cell viability at 0.000001 to 1 uM measured for 24 to 48 hrs by MTT assay; assay type: toxicity, cell-based; conditions: dose lower 1e-06 µM, time lower 24 hrs, dose upper 1 µM, time upper 48 hrs
Calvarial osteoblast [8] = assay: Induction of osteogenesis in mouse Osteoblast cells assessed as ALP activity at 10 nM measured for 24 to 48 hrs; assay type: functional, cell-based; conditions: time 24-48 hrs
Calvarial osteoblast [9] = assay: Induction of osteogenesis in mouse Osteoblast cells assessed as ALP activity at 1 to 1000 pM measured for 24 to 48 hrs; assay type: functional, cell-based; conditions: dose 1-1000 pM, time 24-48 hrs
Calvarial osteoblast [10] = assay: Induction of osteogenesis in mouse Osteoblast cells assessed as ALP activity at 100 to 1000000 pM measured for 24 to 48 hrs; assay type: functional, cell-based; conditions: dose 100-1e+06 pM, time 24-48 hrs
Calvarial osteoblast [11] = assay: Induction of osteogenesis in mouse Osteoblast cells assessed as fold increase in RUNX2 gene expression at 100 to 10000 pM by qRT-PCR analysis; assay type: functional; conditions: dose 100-10000 pM

## N#CC1=Cc2ccccc2OC1N (stereo unspecified)
Calvarial osteoblast [1]
  Activity: 18%

## CCc1cc(-c2nc3ccccc3c(=O)n2C)cc2c1OC(N)=C(C#N)C2c1c(C)[nH]c2ccc(Cl)cc12 (stereo unspecified)
Calvarial osteoblast [1]
  Activity: 1%

## CCc1cc(-c2nc3ccccc3c(=O)n2C)cc2c1OC(N)=C(C#N)C2c1c(C)[nH]c2ccc(OC)cc12 (stereo unspecified)
Calvarial osteoblast [1]
  Activity: 2%

## Cc1cc(-c2nc3ccccc3c(=O)n2C)cc2c1OC(N)=C(C#N)C2c1c(C)[nH]c2ccc(Cl)cc12 (stereo unspecified)
Calvarial osteoblast [2]
  Activity: Active
Calvarial osteoblast [3]
  Activity: Active
Calvarial osteoblast [4]
  Activity: inactive
Calvarial osteoblast [5]
  Activity: inactive
Calvarial osteoblast [6]
  Activity: Toxic
Calvarial osteoblast [7]
  Activity: Non-Toxic
Calvarial osteoblast [1]
  Activity: 25%

## CCn1c(-c2cc(C)c3c(c2)CC(C#N)=C(N)O3)nc2ccccc2c1=O
Calvarial osteoblast [8]
  Activity: inactive
Calvarial osteoblast [1]
  Activity: inactive
Calvarial osteoblast [9]
  Activity: inactive

## CCn1c(C)nc2ccccc2c1=O
Calvarial osteoblast [10]
  Activity: inactive
Calvarial osteoblast [8]
  Activity: inactive
Calvarial osteoblast [1]
  Activity: 1%
Calvarial osteoblast [9]
  Activity: inactive

## CCn1c(-c2cc(C)c3c(c2)C(c2c(C)n(CC)c4ccccc24)C(C#N)=C(N)O3)nc2ccccc2c1=O (stereo unspecified)
Calvarial osteoblast [1]
  Activity: inactive

## CCCc1cc(-c2nc3ccccc3c(=O)n2C)cc2c1OC(N)=C(C#N)C2c1c(C)[nH]c2ccccc12 (stereo unspecified)
Calvarial osteoblast [1]
  Activity: inactive

## CCc1cc(-c2nc3ccccc3c(=O)[nH]2)cc2c1OC(N)=C(C#N)C2c1c(C)[nH]c2ccccc12 (stereo unspecified)
Calvarial osteoblast [1]
  Activity: inactive

## COc1ccc2[nH]c(C)c(C3C(C#N)=C(N)Oc4c3cc(-c3nc5ccccc5c(=O)[nH]3)cc4C(C)(C)C)c2c1 (stereo unspecified)
Calvarial osteoblast [1]
  Activity: inactive

## Cc1cc(-c2nc3ccccc3c(=O)n2C)cc2c1OC(N)=C(C#N)C2c1c(C)[nH]c2ccccc12 (stereo unspecified)
Calvarial osteoblast [1]
  Activity: inactive

## Cc1[nH]c2ccc(Cl)cc2c1C1C(C#N)=C(N)Oc2c1cc(-c1nc3ccccc3c(=O)[nH]1)cc2C(C)(C)C (stereo unspecified)
Calvarial osteoblast [1]
  Activity: 2%

## CCCc1cc(-c2nc3ccccc3c(=O)n2C)cc2c1OC(N)=C(C#N)C2c1c(C)[nH]c2ccc(OC)cc12 (stereo unspecified)
Calvarial osteoblast [11]
  fold change (FC): 3
Calvarial osteoblast [1]
  Activity: 11%

## Cc1cc2ccccc2[nH]1
Calvarial osteoblast [10]
  Activity: inactive
Calvarial osteoblast [8]
  Activity: inactive
Calvarial osteoblast [1]
  Activity: inactive
Calvarial osteoblast [9]
  Activity: inactive

## Cc1[nH]c2ccccc2c1C1C(C#N)=C(N)Oc2c(C(C)C)cc(-c3nc4ccccc4c(=O)n3C)cc21 (stereo unspecified)
Calvarial osteoblast [1]
  Activity: 1%

## COc1ccc2[nH]c(C)c(C3C(C#N)=C(N)Oc4c(C)cc(-c5nc6ccccc6c(=O)n5C)cc43)c2c1 (stereo unspecified)
Calvarial osteoblast [1]
  Activity: 13%
